Experimental data: US20130303551A1, “PYRIMIDINONE DERIVATIVES AS FATTY ACID SYNTHASE INHIBITORS” (priority 2011, published 2013)

What follows are molecules tested against FAS (Homo sapiens, UniProt P49327) (assay: FAS assay (Assay #1: residual NADPH detection, or Assay #2: CoA detection with thio-reactive coumarin dye)). Conditions: average IC50, each compound tested two or more times; FAS activity measured through one of the two assays.
Assay type: biochemical
Description: FAS Activity was Measured Through One of the Two Following Assays.
Inhibition of FAS activity can be measured based on the detection of residual NADPH substrate after the FAS assay is quenched. This assay is run as a 10 μL endpoint assay in 384-well format, where the reaction contains 20 μM malonyl-CoA, 2 μM acetyl-CoA, 30 μM NADPH and 40 nM FAS in 50 mM sodium phosphate, pH 7.0. The assay is run by sequentially dispensing 5 ul of a malonyl-CoA solution, then enzyme solution (containing the acetyl-CoA, and NADPH) into a black, low volume assay plate (Greiner 784076) pre-dispensed with […] compound solutions in DMSO. The reaction is incubated at ambient temperature for 60 minutes, then quenched with 5 μL of a developing solution composed of 90 μM resazurin, 0.3 IU/ml diaphorase in 50 mM sodium phosphate, pH 7.0. The developed reaction is read on a Molecular Devices Analyst or Acquest (or equivalent) plate reader using a 530 nm excitation wavelength filter, a 580 nm emission filter, and 561 nm dichroic filter. The test compounds are prepared in neat DMSO at a concentration of 10 mM. For inhibition curves, compounds are diluted using a three fold serial dilution and tested at 11 concentrations (e.g. 25 μM-0.42 nM). Curves are analysed using ActivityBase and XLfit, and results are expressed as pIC50 values.
Inhibition of FAS can also be quantified based on the detection of the CoA products with a thio-reactive coumarin dye. This assay is run as a 10 μL endpoint assay in 384-well format, where the reaction contains 20 μM malonyl-CoA, 20 μM acetyl-CoA, 40 μM NADPH and 2 nM FAS in 50 mM sodium phosphate, pH 7.0, and 0.04% Tween-20. The assay is run by adding 5 μL enzyme solution to a black, low volume assay plate (Greiner 784076) pre-dispensed with 100 nl compound solutions in DMSO. After 30 minutes, 5 μL substrate is added, and the reaction incubated at ambient temperature for an additional 60 minutes. The reaction is then quenched with 10 μL of 6M guanidine-HCl containing 50 μM CPM (7-diethylamino-3-(4′-maleimidylphenyl)-4-methylcoumarin (CPM; thio-reactive dye), and incubated for 30 minutes. The plate is read on an Envision (PerkinElmer) or equivalent plate reader using a 380 nm excitation wavelength filter, and a 486 nm emission filter. Data fitting and compound preparations are done as described above.

Sequence of FAS (P49327 whole entry): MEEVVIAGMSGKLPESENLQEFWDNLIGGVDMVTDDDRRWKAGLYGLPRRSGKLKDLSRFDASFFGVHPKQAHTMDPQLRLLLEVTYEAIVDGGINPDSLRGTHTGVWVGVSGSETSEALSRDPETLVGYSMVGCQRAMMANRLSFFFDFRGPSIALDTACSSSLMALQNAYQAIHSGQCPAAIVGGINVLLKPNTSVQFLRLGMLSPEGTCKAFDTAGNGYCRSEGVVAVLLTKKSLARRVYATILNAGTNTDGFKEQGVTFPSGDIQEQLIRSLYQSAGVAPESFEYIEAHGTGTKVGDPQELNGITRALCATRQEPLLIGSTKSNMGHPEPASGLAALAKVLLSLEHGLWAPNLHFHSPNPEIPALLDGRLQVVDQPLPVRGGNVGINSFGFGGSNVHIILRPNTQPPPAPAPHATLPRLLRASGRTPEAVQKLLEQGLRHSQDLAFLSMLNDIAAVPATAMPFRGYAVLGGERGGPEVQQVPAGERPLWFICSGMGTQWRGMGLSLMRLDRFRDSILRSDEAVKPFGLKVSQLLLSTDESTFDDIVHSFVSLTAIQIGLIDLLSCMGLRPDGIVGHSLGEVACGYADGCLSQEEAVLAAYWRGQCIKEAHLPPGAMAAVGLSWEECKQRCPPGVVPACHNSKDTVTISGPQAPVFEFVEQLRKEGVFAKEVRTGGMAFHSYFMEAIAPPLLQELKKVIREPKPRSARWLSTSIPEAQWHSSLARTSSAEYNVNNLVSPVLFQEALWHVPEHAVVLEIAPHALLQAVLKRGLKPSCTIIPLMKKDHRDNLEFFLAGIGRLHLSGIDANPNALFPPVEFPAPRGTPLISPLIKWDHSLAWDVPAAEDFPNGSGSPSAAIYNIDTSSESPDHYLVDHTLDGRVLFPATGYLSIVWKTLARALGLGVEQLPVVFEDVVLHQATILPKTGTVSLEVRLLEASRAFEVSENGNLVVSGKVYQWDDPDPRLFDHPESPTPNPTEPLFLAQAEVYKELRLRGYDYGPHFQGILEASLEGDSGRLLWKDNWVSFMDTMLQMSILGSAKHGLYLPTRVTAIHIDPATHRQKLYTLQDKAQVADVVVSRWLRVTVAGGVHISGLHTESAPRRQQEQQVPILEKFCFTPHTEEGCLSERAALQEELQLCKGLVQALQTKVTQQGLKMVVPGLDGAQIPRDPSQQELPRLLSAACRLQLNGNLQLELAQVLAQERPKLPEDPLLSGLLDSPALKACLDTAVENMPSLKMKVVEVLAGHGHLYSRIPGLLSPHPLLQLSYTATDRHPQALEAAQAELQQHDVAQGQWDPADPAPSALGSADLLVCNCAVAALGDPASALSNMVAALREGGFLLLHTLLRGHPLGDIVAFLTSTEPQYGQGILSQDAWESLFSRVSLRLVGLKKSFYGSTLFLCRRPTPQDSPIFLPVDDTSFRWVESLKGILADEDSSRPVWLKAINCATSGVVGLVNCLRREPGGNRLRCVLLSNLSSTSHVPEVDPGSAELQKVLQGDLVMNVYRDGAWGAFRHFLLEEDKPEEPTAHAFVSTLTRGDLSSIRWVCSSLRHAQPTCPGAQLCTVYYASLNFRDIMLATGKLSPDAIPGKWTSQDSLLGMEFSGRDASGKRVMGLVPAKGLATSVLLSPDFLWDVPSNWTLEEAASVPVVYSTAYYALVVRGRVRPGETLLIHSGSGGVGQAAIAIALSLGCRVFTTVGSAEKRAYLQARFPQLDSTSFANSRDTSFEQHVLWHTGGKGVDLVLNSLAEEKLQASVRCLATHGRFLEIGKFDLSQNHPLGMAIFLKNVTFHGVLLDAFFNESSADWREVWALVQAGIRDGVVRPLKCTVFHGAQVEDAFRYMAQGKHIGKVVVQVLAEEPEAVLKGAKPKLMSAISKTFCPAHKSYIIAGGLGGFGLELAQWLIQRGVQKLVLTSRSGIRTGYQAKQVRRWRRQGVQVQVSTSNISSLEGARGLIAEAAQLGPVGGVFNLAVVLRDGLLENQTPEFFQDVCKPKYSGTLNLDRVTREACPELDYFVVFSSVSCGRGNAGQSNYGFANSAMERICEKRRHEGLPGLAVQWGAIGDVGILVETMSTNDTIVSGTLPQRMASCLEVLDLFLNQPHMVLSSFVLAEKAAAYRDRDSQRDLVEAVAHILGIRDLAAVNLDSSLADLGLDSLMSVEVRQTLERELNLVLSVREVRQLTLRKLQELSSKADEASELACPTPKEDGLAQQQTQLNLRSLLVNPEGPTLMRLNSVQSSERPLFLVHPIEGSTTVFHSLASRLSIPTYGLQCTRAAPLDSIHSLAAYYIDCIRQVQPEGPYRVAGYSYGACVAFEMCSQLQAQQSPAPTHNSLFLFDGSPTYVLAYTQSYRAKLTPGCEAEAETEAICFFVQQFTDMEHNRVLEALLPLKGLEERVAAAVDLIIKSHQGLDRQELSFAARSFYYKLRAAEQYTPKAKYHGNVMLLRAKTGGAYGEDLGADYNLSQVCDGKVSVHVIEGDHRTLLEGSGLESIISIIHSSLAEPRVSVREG

First: Cn1ncc2c(=O)n(C[C@@H]3CCN(C(=O)C4CC4)C3)c(-c3ccc(-c4ccc5[nH]ccc5c4)cc3)nc21 [Example 1, 5-{[(3R)-1-(cyclopropylcarbonyl)-3-pyrrolidinyl]methyl}-6-[4-(1H-indol-5-yl)phenyl]-1-methyl-1,5-dihydro-4H-pyrazolo[3,4-d]pyrimidin-4-one]
Second: Cc1cc(=O)n(C[C@@H]2CCN(C(=O)C3CC3)C2)c(-c2ccc(-c3ccc4[nH]ccc4c3)cc2)n1 [Example 26]
The IC50 of the first is 2.5-fold higher: 0.0079 µM for the first, 0.00316 µM for the second.

First: Cc1nc2c(=O)n(C[C@@H]3CCN(C(=O)C4CC4)C3)c(-c3ccc(-c4ccc5[nH]ncc5c4)cc3)nc2o1 [Example 11, 6-{[(3R)-1-(cyclopropylcarbonyl)-3-pyrrolidinyl]methyl}-5-[4-(1H-indazol-5-yl)phenyl]-2-methyl[1,3]oxazolo[5,4-d]pyrimidin-7(6H)-one]
Second: COc1ccc(-c2ccc(-c3nc4ccccc4c(=O)n3C[C@@H]3CCN(C(=O)C4CC4)C3)cc2)c(Cl)c1 [Example 24, 2-[2-chloro-4(methoxy)-4-bipheny]-3-{[(3R)-1-(cyclopropylcarbonyl)-3-pyrrolidinyl]methyl}-4(3H)-quinazolinone]
The IC50 of the first is 8-fold lower: 0.0251 µM for the first, 0.2 µM for the second.

Compared with Cc1cc(=O)n(-c2ccc(-c3ccc4cc[nH]c4c3)cc2)c(C[C@@H]2CCN(C(=O)C3CC3)C2)n1 [Example 47, 2-{[(3S)-1-(cyclopropylcarbonyl)-3-pyrrolidinyl]methyl}-1-[4-(1H-indol-6-yl)phenyl]-6-methyl-4(3H)-pyrimidinone], Cc1cc(=O)nc(C[C@@H]2CCN(C(=O)C3CC3)C2)n1-c1ccc(-c2ccc3occc3c2)cc1 [Example 49, 1-[4-(1-benzofuran-5-yl)phenyl]-2-{[(3S)-1-(cyclopropylcarbonyl)-3-pyrrolidinyl]methyl}-6-methyl-4(1H)-pyrimidinone] is 320-fold higher in IC50: 0.01 µM for the first, 3.16 µM for the second.
